Measured values: US10940139B2, “Compounds that interact with the Ras superfamily for the treatment of cancers, inflammatory diseases, rasopathies, and fibrotic disease” (Shy Therapeutics LLC, priority 2017, dated 2021)

How the values were obtained:
Rho-A = Rho-A (Homo sapiens (Human), UniProt P61586); assay: Rho inhibition assay (labeled GTP); type: binding; settings: read-out: Rho-A % Inh.
KRas G12D mutant protein = KRas G12D mutant protein (Homo sapiens (Human), UniProt P01116, G12D); assay: Ras GTP binding domain inhibition assay (labeled GTP); settings: at 20 μM; read-out: KRas G12D % Inh.
Sequence of KRas G12D mutant protein (P01116-2 other isoform, or with tags, fused parts or gaps G12D): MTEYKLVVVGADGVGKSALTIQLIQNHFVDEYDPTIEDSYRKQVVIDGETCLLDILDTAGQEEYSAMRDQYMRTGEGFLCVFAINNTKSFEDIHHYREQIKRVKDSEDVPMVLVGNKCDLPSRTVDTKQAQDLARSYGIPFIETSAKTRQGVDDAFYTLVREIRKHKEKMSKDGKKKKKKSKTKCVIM
Description: The following method was developed as specific assay for KRas G12D mutant protein.
Buffer-I: • 50 mM Tris, pH 7.5 • 150 mM NaCl (optional) • 1 mM MgCl2 • 1 mM DTT. • KRas G12D mutant protein was expressed as a His-tagged protein. Purified His-KRas G12D protein was diluted in buffer-I to a final concentration of 3-10 μg/ml. • 200 μl of the diluted His-KRas G12D protein was added to a nickel coated 96 well plate and incubated overnight at 4° C. • The next day, wells were washed 3× in 200 μl of Buffer-I. • Then 200 μl of Buffer-I were added to each well in the presence of 1% DMSO. • Tested compounds were added to the protein-coated wells at a concentration of 20 μM, and incubated for 3 hours at room temperature. While performing IC50 measurements a serial dilution of all tested concentrations was prepared.
Then 22 μl of Cy3-GTP or Cy5-GTP was added to each well. The labeled GTP was incubated for 45 min. at room temperature. • Following GTP incubation, wells were washed 3× in Buffer-I, and 200 μl of Buffer-I were added to each well. • Following washes, the amount of bound labeled-GTP was measured with an Eppendorf AF2200 plate reader.

Rac-1 = Rac-1 (Homo sapiens (Human), UniProt P63000); assay: Rac inhibition assay (labeled GTP); type: binding; settings: read-out: Rac-1 % Inh.

Sequence of Rho-A (P61586 whole entry, the tested form may be a part): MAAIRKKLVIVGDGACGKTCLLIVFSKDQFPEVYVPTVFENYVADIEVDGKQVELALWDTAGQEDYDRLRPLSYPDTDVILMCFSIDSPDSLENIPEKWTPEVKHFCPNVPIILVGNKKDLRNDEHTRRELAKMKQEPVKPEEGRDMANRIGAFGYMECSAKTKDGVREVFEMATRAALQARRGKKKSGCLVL

Structure (SMILES) | inhibition at 20 µM (Rho-A) [%] | inhibition at 20 µM (KRas G12D mutant protein) [%] | inhibition at 20 µM (Rac-1) [%]
COCCNc1nc(-c2nccn2C)nc2sc(-c3ccccc3)c(-c3ccc(OC)cc3)c12 [drawing 3907] | 51 to 75 | 25 to 50 | 51 to 75
COCCNc1nc(-c2nccn2C)nc2sc(-c3ccccc3Cl)c(-c3ccccc3)c12 [drawing 3899] | 25 to 50 | 1 to 25 | 0
COCCN(C)c1nc(-c2nccn2C)nc2sc(-c3ccccc3)c(-c3ccccc3)c12 [drawing 3884] | 25 to 50 | 51 to 75 | 25 to 50
Cc1sc2c(O)nc(-c3nccn3C)nc2c1-c1ccc(OC(C)C)c(F)c1 [drawing 3928] | 25 to 50 | 51 to 75 | 51 to 75
Cc1sc2c(O)nc(-c3nccn3C)nc2c1-c1ccc(F)cc1F [drawing 3939] | 1 to 25 | 1 to 25 | 1 to 25
CC(C)COc1ccc(-c2c(-c3ccccc3)sc3c(O)nc(-c4nccn4C)nc23)cn1 [drawing 3905] | 51 to 75 | 51 to 75 | 51 to 75
Cn1cnc(-c2nc(O)c3scc(-c4cccc(OC(F)(F)F)c4)c3n2)c1 [drawing 3924] | 25 to 50 | 25 to 50 | 25 to 50
Cn1ccnc1-c1nc(NCCOC(F)(F)F)c2c(-c3ccccc3)c(-c3ccccc3)sc2n1 [drawing 3886] | 25 to 50 | 25 to 50 | 25 to 50
Cc1sc2c(O)nc(-c3nccn3C)nc2c1-c1cccc(C(F)(F)F)c1 [drawing 3917] | 0 | 1 to 25 | 25 to 50
Cn1cnc(-c2nc(O)c3scc(-c4cccc(C(F)(F)F)c4)c3n2)c1 [drawing 3922] | 25 to 50 | 25 to 50 | 25 to 50
CC(C)Oc1ccc(-c2csc3c(O)nc(-c4nccn4C)nc23)cc1F [drawing 3927] | 25 to 50 | 25 to 50 | 51 to 75
Cn1ccnc1-c1nc(O)c2sc(-c3ccccc3)c(-c3ccccc3Cl)c2n1 [drawing 3913] | 51 to 75 | 51 to 75 | 51 to 75
COCCNc1nc(-c2nccn2C)nc2sc(C)c(-c3ccccc3)c12 [drawing 3902] | 51 to 75 | 51 to 75 | 51 to 75
Oc1nc(-c2ccncn2)nc2c(-c3cccc(C(F)(F)F)c3)csc12 [drawing 3925] | 1 to 25 | 1 to 25 | 1 to 25
Cn1ccnc1-c1nc(O)c2scc(-c3ccccc3)c2n1 [drawing 3932] | 25 to 50 | 51 to 75 | 51 to 75
CC(CO)Nc1nc(-c2nccn2C)nc2sc(-c3ccccc3)c(-c3ccccc3)c12 (stereo not drawn) [drawing 3896] | 1 to 25 | 1 to 25 | 1 to 25
Cn1ccnc1-c1nc(O)c2scc(-c3cccc(Cl)c3)c2n1 [drawing 3935] | 51 to 75 | 25 to 50 | 51 to 75

Structure (SMILES) | inhibition at 20 µM (Rho-A) [%] | inhibition at 20 µM (KRas G12D mutant protein) [%] | inhibition at 20 µM (Rac-1) [%]
COCCNc1nc(-c2cn(C)cn2)nc2sc(-c3ccccc3)c(-c3ccccc3)c12 [drawing 3901] | 51 to 75 | 25 to 50 | 51 to 75
COCCNc1nc(-c2cccc(N)n2)nc2sc(-c3ccccc3)c(-c3ccccc3)c12 [drawing 3909] | 0 | 0 | 0
Cn1ccnc1-c1nc(NCCOC2CC2)c2c(-c3ccccc3)c(-c3ccccc3)sc2n1 [drawing 3894] | 1 to 25 | 1 to 25 | 25 to 50
COc1nc(-c2ccccn2)nc(Oc2cccc(C(F)(F)F)c2)c1O [drawing 3883] | 1 to 25 | 51 to 75 | 76 to 100
COCCNc1nc(-c2nccn2C)nc2sc(-c3cccc(OC)c3)c(-c3ccccc3)c12 [drawing 3904] | 51 to 75 | 25 to 50 | 1 to 25
COc1ccc(-c2c(C)sc3c(O)nc(-c4nccn4C)nc23)cn1 [drawing 3919] | 0 | 1 to 25 | 1 to 25
COCCNc1nc(-c2nccn2C)nc2sc(-c3ccccc3)c(-c3ccncc3)c12 [drawing 3914] | 76 to 100 | 51 to 75 | 76 to 100
Cn1ccnc1-c1nc(O)c2scc(-c3cccc(C(F)(F)F)c3)c2n1 [drawing 3916] | 25 to 50 | 25 to 50 | 51 to 75
COCCNc1nc(-c2nccn2C)nc2sc(-c3ccccc3)c(-c3ccccc3Cl)c12 [drawing 3898] | 25 to 50 | 25 to 50 | 25 to 50
CC(C)OCCNc1nc(-c2nccn2C)nc2sc(-c3ccccc3)c(-c3ccccc3)c12 [drawing 3885] | 25 to 50 | 51 to 75 | 25 to 50
Cc1sc2c(O)nc(-c3nccn3C)nc2c1-c1ccc(OCC(C)C)nc1 [drawing 3918] | 1 to 25 | 1 to 25 | 25 to 50
COC1CCN(c2nc(-c3nccn3C)nc3sc(-c4ccccc4)c(-c4ccccc4)c23)C1 (stereo not drawn) [drawing 3889] | 0 | 51 to 75 | 25 to 50
CCN(CC)CCOc1nc(-c2nccn2C)nc2sc(-c3ccccc3)c(-c3ccccc3)c12 [drawing 3891] | 1 to 25 | 25 to 50 | 1 to 25
Cn1ccnc1-c1nc(O)c2scc(-c3cccc(OC(F)(F)F)c3)c2n1 [drawing 3921] | 25 to 50 | 51 to 75 | 51 to 75
COCCNc1nc(-c2nccn2C)nc2sc(-c3ccccc3)c(-c3ccccn3)c12 [drawing 3940] | 51 to 75 | 25 to 50 | 25 to 50
COCCNc1nc(-c2ccccn2)nc2sc(-c3ccccc3)c(-c3ccccn3)c12 [drawing 3938] | 25 to 50 | 1 to 25 | 1 to 25

Next, values leading:

inhibition at 20 µM (Rho-A) [%] | inhibition at 20 µM (KRas G12D mutant protein) [%] | inhibition at 20 µM (Rac-1) [%] | Structure (SMILES)
25 to 50 | 1 to 25 | 1 to 25 | CCOCCOc1nc(-c2nccn2C)nc2sc(-c3ccccc3)c(-c3ccccc3)c12 [drawing 3890]
25 to 50 | 1 to 25 | 25 to 50 | Cn1ccnc1-c1nc(O)c2scc(-c3ccc(C(C)(C)C)cc3)c2n1 [drawing 3937]
51 to 75 | 51 to 75 | 51 to 75 | COc1ccc(-c2csc3c(O)nc(-c4nccn4C)nc23)cn1 [drawing 3931]
1 to 25 | 25 to 50 | 25 to 50 | COCCNc1nc(-c2nccn2C)nc2sc(-c3ccc(OC)cc3)c(-c3ccccc3)c12 [drawing 3915]
51 to 75 | 51 to 75 | 51 to 75 | CCOCCNc1nc(-c2nccn2C)nc2sc(-c3ccccc3)c(-c3ccccc3)c12 [drawing 3893]
51 to 75 | 25 to 50 | 51 to 75 | COCCNc1nc(-c2cn(C)cn2)nc2sc(C)c(-c3ccccc3)c12 [drawing 3903]
1 to 25 | 0 | 1 to 25 | COCCNc1nc(-c2ccncn2)nc2sc(-c3ccccc3)c(-c3ccccc3)c12 [drawing 3892]
51 to 75 | 51 to 75 | 25 to 50 | COCCCNc1nc(-c2nccn2C)nc2sc(-c3ccccc3)c(-c3ccccc3)c12 [drawing 3888]
51 to 75 | 51 to 75 | 76 to 100 | COCCNc1nc(-c2nccn2C)nc2sc(C3CCOCC3)c(-c3ccccc3)c12 [drawing 3908]
51 to 75 | 25 to 50 | 51 to 75 | Oc1nc(-c2ncccn2)nc2c(-c3cccc(C(F)(F)F)c3)csc12 [drawing 3926]
0 | 0 | 1 to 25 | Cn1ccnc1-c1nc(O)c2sc(-c3ccccc3)c(-c3cccc(C(F)(F)F)c3)c2n1 [drawing 3910]
25 to 50 | 1 to 25 | 25 to 50 | CC(O)CNc1nc(-c2nccn2C)nc2sc(-c3ccccc3)c(-c3ccccc3)c12 (stereo not drawn) [drawing 3887]
25 to 50 | 25 to 50 | 51 to 75 | CC(C)Oc1ccc(-c2c(-c3ccccc3)sc3c(O)nc(-c4nccn4C)nc23)cc1F [drawing 3929]
1 to 25 | 1 to 25 | 1 to 25 | COCC(C)Nc1nc(-c2nccn2C)nc2sc(-c3ccccc3)c(-c3ccccc3)c12 (stereo not drawn) [drawing 3895]
